Experimental data reported in ChEMBL document CHEMBL1157053, “Pharmacophore-based 3D QSAR studies on a series of high affinity 5-HT1A receptor ligands” (Eur J Med Chem, 2010).
pKi: −log10 of the molar value.

Target: T1, 5-hydroxytryptamine receptor 1A (Homo sapiens, UniProt P08908)
T1 sequence (P08908 whole entry): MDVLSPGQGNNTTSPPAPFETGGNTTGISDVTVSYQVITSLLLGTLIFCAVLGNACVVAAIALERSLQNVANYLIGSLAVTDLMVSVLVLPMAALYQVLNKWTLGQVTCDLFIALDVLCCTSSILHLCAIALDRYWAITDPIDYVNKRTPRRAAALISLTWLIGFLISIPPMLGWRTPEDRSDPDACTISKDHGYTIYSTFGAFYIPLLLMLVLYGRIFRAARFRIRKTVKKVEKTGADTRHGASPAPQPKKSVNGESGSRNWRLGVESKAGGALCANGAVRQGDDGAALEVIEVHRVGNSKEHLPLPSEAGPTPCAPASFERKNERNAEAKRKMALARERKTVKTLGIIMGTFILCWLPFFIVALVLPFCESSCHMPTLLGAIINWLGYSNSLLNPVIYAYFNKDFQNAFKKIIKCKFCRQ
Test: Antagonist activity at 5HT1A
Type: functional

Going from `Cc1ccc2cccc(N3CCN(CCC(O)c4csc5ccc(F)cc45)CC3)c2n1` (centres undefined) to `Cc1ccc2cccc(N3CCN(CCC(O)c4csc5ccccc45)CC3)c2n1` (centres undefined), the pKi falls from 8.60 to 7.99 (0.61 log units).

`CC1CN(CCC(O)c2csc3ccc(F)cc23)CCN1c1cccc2c1OCO2` (centres undefined) and `OC(CCN1CCN(c2cccc3c2OCCO3)CC1)c1csc2ccc(F)cc12` (centres undefined) are within 0.2 log units of each other in pKi: 8.03 for the first, 8.22 for the second.

First: COc1ccccc1N1CCN(CCC(O)c2csc(C)c2)CC1 (centres undefined)
Second: COc1ccccc1N1CCN(CCC(O)c2ccc([N+](=O)[O-])cc2)CC1 (centres undefined)
The pKi of the first is 1.57 log units lower: 6.43 for the first, 8.00 for the second.

`COc1ccccc1N1CCN(CCC(=O)c2ccsc2)CC1` and `COc1ccccc1N1CCN(CCC(=O)c2ccc([N+](=O)[O-])cc2)CC1` are within 0.2 log units of each other in pKi: 7.22 for the first, 7.30 for the second.

Compared with `Cc1cc(C(O)CCN2CCN(c3ccccc3O)CC2)c(C)s1` (centres undefined), `COc1ccccc1N1CCN(CCC(=O)c2cc(C)sc2C)CC1` is 1.75 log units lower in pKi: 7.05 for the first, 5.30 for the second. The first binds more tightly here.

First: OC(CCN1CCN(c2cccc3ncccc23)CC1)c1csc2ccccc12 (centres undefined)
Second: OC(CCN1CCN(c2cccc3cccnc23)CC1)c1csc2ccccc12 (centres undefined)
The pKi of the first is 1.17 log units higher: 7.43 for the first, 6.26 for the second. The first binds more tightly here.

Compared with `OC(CCN1CCN(c2cccc3ccccc23)CC1)c1csc2ccccc12` (centres undefined), `OC(CCN1CCN(c2cnc3ccccc3c2)CC1)c1csc2ccccc12` (centres undefined) is 1.18 log units lower in pKi: 7.18 for the first, 6.00 for the second.

First: COc1ccccc1N1CCN(CCC(Oc2ccc3c(c2)OCO3)c2ccccc2)CC1 (centres undefined)
Second: COc1ccccc1N1CCN(CCC(Oc2ccc3c(c2)OCO3)c2ccsc2)CC1 (centres undefined)
The pKi of the first is 0.44 log units higher: 7.70 for the first, 7.26 for the second. The first binds more tightly here.

`COc1ccccc1N1CCN(CCC(Oc2cccc3ccccc23)c2ccsc2)CC1` (centres undefined) and `COc1ccccc1N1CCN(CCC(Oc2cccc3ccccc23)c2cccs2)CC1` (centres undefined) are within 0.2 log units of each other in pKi: 6.74 for the first, 6.66 for the second.

First: OC(CCN1CCN(c2ncccn2)CC1)c1ccccc1 (centres undefined)
Second: OC(CCN1CCN(c2ccc(F)cc2)CC1)c1ccccc1 (centres undefined)
The pKi of the first is 0.41 log units lower: 6.43 for the first, 6.84 for the second. The second binds more tightly here.

Going from `COc1ccc(OC(CCN2CCN(c3ccccc3OC)CC2)c2ccccc2)cc1` (centres undefined) to `COc1ccccc1N1CCN(CCC(O)c2ccc(-c3ccccc3)cc2)CC1` (centres undefined), the pKi falls from 7.05 to 6.07 (0.98 log units).

First: OC(CCN1CCN(c2ccccc2Cl)CC1)c1ccsc1 (centres undefined)
Second: Oc1ccccc1N1CCN(CCC(O)c2ccc3ccccc3c2)CC1 (centres undefined)
The pKi of the first is 1.42 log units lower: 5.30 for the first, 6.72 for the second. The second binds more tightly here.

First: FC(F)(F)c1ccc(OC(CCN2CCN(c3ccc(Cl)cc3)CC2)c2ccccc2)cc1 (centres undefined)
Second: OC(CCN1CCN(c2ccc3ncccc3c2)CC1)c1csc2ccccc12 (centres undefined)
The pKi of the first is 0.96 log units lower: 5.30 for the first, 6.26 for the second. The second binds more tightly here.

First: OC(CCN1CCN(c2cccc3c2OCCCO3)CC1)c1csc2ccccc12 (centres undefined)
Second: OC(CCN1CCN(c2cccc3c2OCCCO3)CC1)c1csc2ccc(F)cc12 (centres undefined)
The pKi of the first is 0.20 log units higher: 8.72 for the first, 8.52 for the second. The first binds more tightly here.

First: O=C(CCN1CCN(c2ccccc2O)CC1)c1ccc2ccccc2c1
Second: Cc1cc(C(=O)CCN2CCN(c3cccc4ccccc34)CC2)c(C)s1
The pKi of the first is 0.70 log units higher: 6.00 for the first, 5.30 for the second.

Going from `OC(CCN1CCN(c2cccc3cccnc23)CC1)c1csc2ccc(F)cc12` (centres undefined) to `OC(CCN1CCN(c2ccc3sccc3c2)CC1)c1csc2ccccc12` (centres undefined), the pKi falls from 8.57 to 5.80 (2.77 log units). The first binds more tightly here.

First: COc1cc(F)ccc1N1CCN(CCC(=O)c2cc(C)sc2C)CC1
Second: COc1ccccc1N1CCN(CC/C(=N\O)c2csc3ccccc23)CC1
The pKi of the first is 1.79 log units higher: 7.89 for the first, 6.10 for the second. The first binds more tightly here.
